Series [1] relates to H4IIE cells. Description: Glucose production assay in H4IIE cells. In kind it is cell-based, rat. As for the experimental part:
Equal numbers of Human HepG2 or rat H4IIE cells (1-1.5×10^5 cells/well) were seeded on 96 well plates in 10% FBS-containing media for 24 hr. Cells were then washed twice with PBS, and treated with various concentrations of compounds, metformin or insulin in 100 μl of glucose production media (glucose-free, phenol red-free DMEM media supplemented with 20 mM sodium lactate, 2 mM sodium pyruvate and 5 mM HEPES) at 37° C. for 24 hr (H4IIE cells only) or 48 hr (HepG2 cell only). Cells were also incubated with 0.24% DMSO (the maximal volume of DMSO solvent used in the experiments).
(§1) After the above treatments, 50 μl of culture media were collected, and subjected to glucose analysis using Molecular Probes Amplex Red glucose assay kit (Cat #A22189) according to the manufacturer's protocol. Cell numbers or viability in the culture plate after the above compound treatments were determined using Promega's CellTiter96® AQueous One Solution Cell Proliferation Assay kits, according to the manufacturer's protocol and instructions. In brief, after removing 50 μl of culture media for glucose assay, cells were incubated with AQueous One solution (25 μl stock solution and 50 μl prewarmed PBS/per well) at 37° C. for 1 hour, and the absorbance of OD490 nm in each sample was determined by the Bio-Tek microplate reader. Cell viability in culture wells were determined by the subtraction of OD490 nm in cultured cells with the OD490 nm in plain culture media (without seeding of cells). Glucose production in the culture cells were obtained by normalizing the glucose concentration in culture media by cell viability in each well. At least 3 samples per each treatment were examined for the above analysis. Data are presented as Mean±SEM of those samples. Experiments were repeated at least twice.
The half maximal inhibitory concentration (IC50 values) of Compound #43 or metformin for the inhibition of glucose production were determined using the ED50 Plus v1.0 online software.

Series [2] relates to HepG2 cells. The experiment in a line: Cell viability (CellTiter96 AQueous One) in HepG2 cells. The series is classed as cell-based, human. The following applies: all tested doses, 48 hr. Here is the method: as §1
The subject of series [3] is Glut4. The experiment in a line: QRT-PCR of Glut4 mRNA in livers of Lepr^db/db mice. In kind it is in vivo, mouse. The following applies: 25 μg selenium/kg ip daily, 52 days (FIG. 15). Here is the method:
Male Lepr^db/db mice (C57BL/6J strain, purchased from The Jackson Laboratory) at postnatal day 38 were intraperitoneally injected daily with physiological saline ([…]) containing 0.2% DMSO, Compound #43, or Compound #50 (25 μg selenium of each compound per kilogram body weight, diluted in sterile physiological saline) for 52 days. After treatment, livers were collected and subjected to RNA analysis.
Total liver RNA from saline- or Compound #43-treated Lepr^db/db mice was isolated using a Qiagen RNAeasy RNA isolation kit according to the Manufacturer's protocol. Total RNA from cultured cells was isolated using Trizol (Invitrogen) according to the manufacturer's protocol, and then incubated with DNase I to remove any potential contaminating genomic DNA. RNA samples were subjected to real-time PCR analysis using Applied-Bioscience's RT kit and predesigned Taqman probes (Invitrogen), as described previously (Lan et al EMBO J 2003). Data were normalized by Actin B (Actb) mRNA levels in each sample and are presented as mean±SEM of 3-5 samples.

The test system of series [4] is Pdk1/Akt/Foxo1. Description: Western blot of Pdk1/Akt/Foxo1 in skeletal muscles of Lepr^db/db mice. The series is classed as in vivo, mouse. The note with it: 0.136 mg/kg ip daily, 52 days (FIG. 18). As for the experimental part:
Male Lepr^db/db mice (C57BL/6J strain, purchased from The Jackson Laboratory) at 38 days of age were intraperitoneally injected daily with physiological saline ([…]) containing 0.2% DMSO or 0.136 mg of Compound #43 per kilogram body weight, diluted in the sterile physiological saline) for 52 days. After the treatment, gastrocnemius skeletal muscle samples were collected and stored at −80° C.
Frozen skeletal muscles were minced in sterile ice-old PBS containing complete proteinase and phosphatase inhibitors (Thermo-Fisher Scientific, Waltham, Mass.) and subjected to homogenization using a tissue homogenizer (Thermo-Fisher Scientific, Waltham, Mass.). These tissue homogenates were diluted in Themo-Fisher's RIPA buffer (1 part homogenate/2 part of RIPA buffer) containing complete proteinase/phosphatase inhibitors to extract the proteins. Proteins in the homogenates were extracted in RIPA buffer at 4° C. overnight. These overnight-extracted protein/tissue lysates were centrifuged at 12000×g for 30 min at 4° C., and the protein levels in the supernatant of these tissue lysates were determined using the Pierce Micro-BCA protein assay kit (Thermo Scientific-Piece Biotechnology, Rockford, Ill.) according to the manufacturer's protocol.
One hundred micrograms of skeletal muscle proteins were subjected to SDS-PAGE gel separation and then transferred to PVDF membranes, as described previously (Reddy et al. 2008 Science). Membranes were blocked in a phosphate-buffered saline (PBS) containing 5% (w/v) of bovine serum albumin (Sigma, St. Louis, Mo.) and incubated with specific primary antibodies followed by the incubation with HRP-conjugated anti-mouse or anti-rabbit secondary antibodies (1:5000 dilution, Cell Signaling Inc.). All primary antibodies were purchased from Cell Signaling Inc, except the antibodies against β-tubulin (LI-COR bioscience). Positive signals on the membrane blots were detected using Amersham's enhanced chemiluminescence Western Blotting Prime Detection reagents (GE Healthcare Lifescience, Pittsburgh, Pa.). Images of these luminescence signals on the membrane blots were captured using the LI-COR Odyssey Fc Image system (Lincoln, Nebr.). The same membrane blot was stripped and re-blotted with another antibody as described in the GE WB ECL-prime-detection protocol (GE healthcare Lifescience, Pittsburgh, Pa.). Protein band densities in the Western blots were determined using the NIH ImageJ software and then normalized by β-tubulin level in each sample. Data are presented as mean±SEM of 5 animal samples.

For series [5], the system named is STZ-induced T1D mice. The experiment in a line: Blood glucose in STZ-induced type 1 diabetic mice after acute treatment. In kind it is in vivo, mouse. The following applies: 5.4 mg/kg ip, fasted. As for the experimental part: Five-week-old C57/BL6 male mice were intraperitoneally injected with streptozotocin (STZ, 55 mg/kg mouse body weigh) daily for 5 days, and then housed in the vivarium for another 14 days for recovery. Blood glucose levels of these mice were measured using a glucometer. Those animals with a blood glucose level higher than 500 mg/dL were considered to be type I diabetic (T1D). These T1D mice with unfasted blood glucose levels between 500-550 mg/dL were fasted overnight and injected intraperitoneally with Compound #43 at a dose of 5.4 mg/kg body weight or physiological saline containing 2% DMSO (Compound #43 stock solvent). At 1, 2 and 3 hours post-injection, blood glucose levels in these mice were measured using the glucometer.

The IC50 is the concentration that inhibits the measured activity by half.

Structures are written as SMILES.

Consider `C[Se]C[C@H]1O[C@@H](n2cnc3c(N)ncnc32)C(OC(C)=O)C1OC(C)=O` (some centres unmarked) [Compound #43, Adenosine, 5′-Se-methyl-5′-selino-, 2′,3′-diacetate], for which the IC50 in series [1] (Rattus norvegicus, H4IIE, 24 h, read-out: IC50 (inhibition of glucose production)) was determined as 17.8 µM. For the same compound, the “potency relative to metformin in inhibition of glucose production” value in series [1] (cultured rat liver cells) is “at least 15 times”. Besides, in series [1] (serum-free, 24 hr (FIG. 2)), the “effect on glucose production in H4IIE cells” value is on record as “dose-dependent decrease in glucose production”. Also, the cell viability result in series [2] is “no significant decrease of cell viability”. For the same compound, the “increase in Glut4 mRNA expression levels in the liver” value in series [3] amounted to 5 fold. In series [4], the “pAkt protein levels in skeletal muscle” value is on record as “significantly elevated”; the “pFoxo1 protein levels in skeletal muscle” value is recorded as “significantly elevated”; the “total Akt and Foxo1 protein levels in skeletal muscle” value is “no significant change”. Also, in series [4] (P=0.11), the “pPdk1 protein levels in skeletal muscle” value is “approached statistical significance”. In addition, in series [5] (2 and 3 hours (FIG. 28)), the blood glucose levels entry is reported as “significant decrease in blood glucose levels”. For the same compound, in series [5] (1 hour (FIG. 28)), the blood glucose levels result is listed as “trend of decreased blood glucose levels”.
